Measurements published in patent US20150072969A1, “PHENYL ALKANOIC ACID DERIVATIVES AS GPR AGONISTS” (PIRAMAL ENTERPRISES LIMITED, priority 2012, published 2015).

What follows are molecules tested against T1, human GPR40 (Homo sapiens, UniProt O14842) (assay: Inositol phosphate accumulation assay in FFAR1 (GPR40) CHOK1 clone). Conditions: GPR40 agonist activity; intracellular inositol phosphate release in CHOK1 cells stably expressing recombinant human GPR40; 1 h incubation at 37° C.
T1 construct: expressed in transfected cells
Type: cell-based
Method: The inositol phosphate accumulation assay was performed to characterise the GPR40 agonist activity of the compounds of the present invention.
The assay was carried out in accordance with the method substantially as described in Diabetes, 2008, 57(8):2211-2219 and PLoS One, 2011, 6(11):e27270.
A stable FFAR1 (GPR40) CHOK1 clone was used to determine the GPR40 agonist activity of the test compounds (compounds of the present invention synthesized in the above Examples). The stable FFAR1 (GPR40) CHOK1 clone expressing recombinant human GPR40 was generated according to the procedure described herein below.
Full-length human GPR40 cDNA (Accession Number: NM_005303) was cloned into mammalian expression vector (pReceiver) and was stably transfected into (Chinese Hamster Ovary) CHOK1 cells using Amaxa technology. 2 μg of pReceiver hGPR40 were transfected into 1×10^6 CHOK1 cells in 6 well plates. The cells were split into three 100 mm cell culture plates on the second day and geneticin (800 μg/ml) was added to the cell culture on the third day. The selection medium comprising Ham's F-12 K supplemented with FBS (10%) and geneticin (800 μg/ml) was changed every three days until colonies were formed. The colonies isolated were further purified (single cell cloning) after 14 days to obtain pure isogenic single cell homogenous population of cells expressing the GPR40 receptor protein on the cell surface. GPR40 receptor expression on cell surface was measured by flow cytometry. The in-house transgenic cell line (clone) created was labeled as FFAR1 (GPR40) CHOK1 clone.
FFAR1 (GPR40) CHOK1 cells were suspended in culture medium comprising Ham's F-12 K supplemented with FBS (10%) and geneticin (800 μg/ml). Cells were seeded at a density of 2×10^4 cells per well in a 384 well tissue culture plate and cultured overnight. The medium was discarded and the cells were further resuspended in a stimulation buffer comprising HEPES (10 mM), glucose (5.5 mM), CaCl2 (1 mM), NaCl (150 mM), KCl (4.2 mM), MgCl2 (0.5 mM) and LiCl (50 mM) having a pH of 7.6. The test compounds (representative compounds of Formula (I)) 10 mM stock were prepared in DMSO and subsequently log fold dilution of the test compounds were carried out in the stimulation buffer. Various concentrations of the test compounds and the standard DMSO solution were added to each well. The plates were further incubated at 37° C., 5% CO2 incubator for 1 h. The final concentration of the test compounds in the each well varied from 1 μM to 10 μM. The DMSO concentration in the assay was 0.1% or less. After incubation, lysis reagent and anti-Tb conjugate were added to each well. The intracellular Inositol Phosphate release and accumulation in the test compounds were measured by the binding ability of the anti-Tb conjugate with the inositol phosphate inherently produced in each well as compared with the inositol phosphate coupled to dye d2 added externally to each well. The plates were then read using Perkin Elmer (Envision) plate reader and the fluorescence signal was captured. The EC50 values for the test compounds were calculated from the non linear regression sigmoidal curve graphs plotted between the concentrations of the test compounds and the fluorescence intensity.

T1 sequence (O14842 whole entry): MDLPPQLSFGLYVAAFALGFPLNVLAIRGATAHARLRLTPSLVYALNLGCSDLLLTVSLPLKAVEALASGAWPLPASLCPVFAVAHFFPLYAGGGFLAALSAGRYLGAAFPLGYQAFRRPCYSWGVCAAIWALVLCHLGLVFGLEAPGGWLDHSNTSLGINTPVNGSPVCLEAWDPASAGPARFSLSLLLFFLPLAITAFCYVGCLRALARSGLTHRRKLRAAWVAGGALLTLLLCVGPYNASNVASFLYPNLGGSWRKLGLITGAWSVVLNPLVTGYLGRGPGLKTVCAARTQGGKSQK

| Structure (SMILES) | EC50 [nM] |
| --- | --- |
| O=C(O)CC1(c2ccc(OCc3cccc(-c4ccccc4)c3)cc2)COC1 [Example 4, 2-(3-(4-([1,1′-Biphenyl]-3-ylmethoxy)phenyl)oxetan-3-yl)acetic acid] | 100 to 500 |
| N#Cc1ccccc1-c1ccc(COc2ccc(C3(CC(=O)O)COC3)cc2)cc1 [Example 6, 2-(3-(4-((2′-Cyano-[1,1′-biphenyl]-4-yl)methoxy)phenyl)oxetan-3-yl)acetic acid] | 100 to 500 |
| O=C(O)CC1(c2ccc(OCc3ccc(-c4ccccc4)cc3)cc2)COC1 [Example 8, 2-(3-(4-([1,1′-Biphenyl]-4-ylmethoxy)phenyl)oxetan-3-yl)acetic acid] | 100 to 500 |
| Cc1cc(OCCCS(C)(=O)=O)cc(C)c1-c1cccc(COc2ccc(C3(CC(=O)O)COC3)cc2)c1 [Example 10, 2-(3-(4-((2′,6′-Dimethyl-4′-(3-(methylsulfonyl)propoxy)-[1,1′-biphenyl]-3-yl)methoxy)phenyl)oxetan-3-yl)acetic acid] | < 100 |
| O=C(O)CC1(c2ccc(OCc3cccc(-c4ccccc4)c3)c(F)c2)COC1 [Example 12, 2-(3-(4-([1,1′-Biphenyl]-3-ylmethoxy)-3-fluorophenyl)oxetan-3-yl)acetic acid] | > 500 |
| O=C(O)CC1(c2ccc(OCc3ccc(-c4ccccc4)cc3)c(F)c2)COC1 [Example 14, 2-(3-(4-([1,1′-Biphenyl]-4-ylmethoxy)-3-fluorophenyl)oxetan-3-yl)acetic acid] | > 500 |
| Cc1cc(OCCCS(C)(=O)=O)cc(C)c1-c1cccc(COc2ccc(C3(CC(=O)O)COC3)cc2F)c1 [Example 16, 2-(3-(4-((2′,6′-Dimethyl-4′-(3-(methylsulfonyl)propoxy)-[1,1′-biphenyl]-3-yl)methoxy)-3-fluorophenyl)oxetan-3-yl)acetic acid] | > 500 |
| CC1(C)CCC(C)(C)c2cc(COc3ccc(C4(CC(=O)O)COC4)cc3)ccc21 [Example 18, 2-(3-(4-((5,5,8,8-Tetramethyl-5,6,7,8-tetrahydronaphthalen-2-yl)methoxy)phenyl)oxetan-3-yl)acetic acid] | 100 to 500 |
| COc1ccc(COc2ccc(C3(CC(=O)O)COC3)cc2)cc1C(F)(F)F [Example 22] | > 500 |
| Cc1ccc(C(F)(F)F)cc1COc1ccc(C2(CC(=O)O)COC2)cc1 [Example 24] | > 500 |
| Cc1ccc(COc2ccc(C3(CC(=O)O)COC3)cc2)cc1C(F)(F)F [Example 28, 2-(3-(4-((4-Methyl-3-(trifluoromethyl)benzyl)oxy)phenyl)oxetan-3-yl)acetic acid] | 100 to 500 |
| COc1cc(COc2ccc(C3(CC(=O)O)COC3)cc2)ccc1C(F)(F)F [Example 30, 2-(3-(4-((3-Methoxy-4-(trifluoromethyl)benzyl)oxy)phenyl)oxetan-3-yl)acetic acid] | > 500 |
| O=C(O)CC1(c2ccc(OCc3ccc(C(F)(F)F)c(F)c3)cc2)COC1 [Example 32, 2-(3-(4-((3-Fluoro-4-(trifluoromethyl)benzyl)oxy)phenyl)oxetan-3-yl)acetic acid] | > 500 |
| Cc1cc(OCC2CCOC2)cc(C)c1-c1cccc(COc2ccc(C3(CC(=O)O)COC3)cc2)c1 (centres unmarked) [Example 41, 2-(3-(4-((2′,6′-Dimethyl-4′-((tetrahydrofuran-3-yl)methoxy)-[1,1′-biphenyl]-3-yl)methoxy)phenyl)oxetan-3-yl)acetic acid] | < 100 |
| Cc1cc(OCC2CCOCC2)cc(C)c1-c1cccc(COc2ccc(C3(CC(=O)O)COC3)cc2)c1 [Example 43, 2-(3-(4-((2′,6′-Dimethyl-4′-((tetrahydro-2H-pyran-4-yl)methoxy)-[1,1′-biphenyl]-3-yl)methoxy)phenyl)oxetan-3-yl)acetic acid] | < 100 |
| Cc1cc(OCC2CCS(=O)(=O)CC2)cc(C)c1-c1cccc(COc2ccc(C3(CC(=O)O)COC3)cc2)c1 [Example 45, 2-(3-(4-((4′-((1,1-Dioxidotetrahydro-2H-thiopyran-4-yl)methoxy)-2′,6′-dimethyl-[1,1′-biphenyl]-3-yl)methoxy)phenyl)oxetan-3-yl)acetic acid] | < 100 |
| Cc1cc(OCC2CCCO2)cc(C)c1-c1cccc(COc2ccc(C3(CC(=O)O)COC3)cc2)c1 (centres unmarked) [Example 47, 2-(3-(4-((2′,6′-Dimethyl-4′-((tetrahydrofuran-2-yl)methoxy)-[1,1′-biphenyl]-3-yl)methoxy)phenyl)oxetan-3-yl)acetic acid] | < 100 |
| Cc1cc(OC[C@@H]2CCOC2)cc(C)c1-c1cccc(COc2ccc(C3(CC(=O)O)COC3)cc2)c1 [Example 49, (R)-2-(3-(4-((2′,6′-dimethyl-4′-((tetrahydrofuran-3-yl)methoxy)-[1,1′-biphenyl]-3-yl)methoxy)phenyl)oxetan-3-yl)acetic acid] | < 100 |
| Cc1cc(OCC2(C)COC2)cc(C)c1-c1cccc(COc2ccc(C3(CC(=O)O)COC3)cc2)c1 [Example 51, 2-(3-(4-((2′,6′-Dimethyl-4′-((3-methyloxetan-3-yl)methoxy)-[1,1′-biphenyl]-3-yl)methoxy)phenyl)oxetan-3-yl)acetic acid] | > 500 |
| Cc1cc(OCC2CCS(=O)(=O)C2)cc(C)c1-c1cccc(COc2ccc(C3(CC(=O)O)COC3)cc2)c1 (centres unmarked) [Example 53, 2-(3-(4-((4′-((1,1-Dioxidotetrahydrothiophen-3-yl)methoxy)-2′,6′-dimethyl-[1,1′-biphenyl]-3-yl)methoxy)phenyl)oxetan-3-yl)acetic acid] | < 100 |
| Cc1cc(OCC2(CO)COC2)cc(C)c1-c1cccc(COc2ccc(C3(CC(=O)O)COC3)cc2)c1 [Example 55, 2-(3-(4-((4′-((3-(Hydroxymethyl)oxetan-3-yl)methoxy)-2′,6′-dimethyl-[1,1′-biphenyl]-3-yl)methoxy)phenyl)oxetan-3-yl)acetic acid] | < 100 |
| Cc1cc(OC2CCS(=O)(=O)CC2)cc(C)c1-c1cccc(COc2ccc(C3(CC(=O)O)COC3)cc2)c1 [Example 57, 2-(3-(4-((4′-((1,1-Dioxidotetrahydro-2H-thiopyran-4-yl)oxy)-2′,6′-dimethyl-[1,1′-biphenyl]-3-yl)methoxy)phenyl)oxetan-3-yl)acetic acid] | 100 to 500 |
| Cc1cc(OC2CCCC2)cc(C)c1-c1cccc(COc2ccc(C3(CC(=O)O)COC3)cc2)c1 [Example 59, 2-(3-(4-((4′-(Cyclopentyloxy)-2′,6′-dimethyl-[1,1′-biphenyl]-3-yl)methoxy)phenyl)oxetan-3-yl)acetic acid] | > 500 |
| CS(=O)(=O)CCCOc1ccc(-c2cccc(COc3ccc(C4(CC(=O)O)COC4)cc3)c2)c(Cl)c1 [Example 62, 2-(3-(4-((2′-Chloro-4′-(3-(methylsulfonyl)propoxy)-[1,1′-biphenyl]-3-yl)methoxy)phenyl)oxetan-3-yl)acetic acid] | < 100 |
| O=C(O)CC1(c2ccc(OCc3cccc(-c4ccc(OCC5(CO)COC5)cc4Cl)c3)cc2)COC1 [Example 66, 2-(3-(4-((2′-Chloro-4′-((3-(hydroxymethyl)oxetan-3-yl)methoxy)-[1,1′-biphenyl]-3-yl)methoxy)phenyl)oxetan-3-yl)acetic acid] | < 100 |
| O=C(O)CC1(c2ccc(OCc3cccc(-c4ccc(OCC5CCS(=O)(=O)C5)cc4Cl)c3)cc2)COC1 (centres unmarked) [Example 68, 2-(3-(4-((2′-Chloro-4′-((1,1-dioxidotetrahydrothiophen-3-yl)methoxy)-[1,1′-biphenyl]-3-yl)methoxy)phenyl)oxetan-3-yl)acetic acid] | < 100 |
